Reference: patent publication US10011863B2, “Methods for detecting enhanced NMDA receptor function and uses thereof” (INOVA HEALTH SYSTEM, priority 2016, dated 2018)

Key:
[1] = system: human GRIN2B promoter (G allele of SNP rs3764030) in N2a cells; assay: dual-luciferase reporter gene assay, GRIN2B promoter G allele plasmid; type: cell-based, murine; conditions: N2A cells transfected with G allele luciferase reporter plasmid; increasing concentrations of NMDA
Experimental: (§1) FIG. 3 depicts a concentration dependent response of human GRIN2B promoter in N2a cells carrying either the A or G alleles of SNP rs3764030 to NMDA. Luciferase reporter gene plasmids were constructed in pGL 4.10 (to produce Firefly luciferase, Promega, US). Luciferase reporter plasmids and the pGL4.75 plasmid (to produce Renilla luciferase as a reference) were co-transfected into retinoic acid differentiated N2a cells and assayed for (Methods). After 24 hours of transfection, the cells were incubated for six hours with 0, 30, 50, 70 or 90 μM NMDA for transcription factors binding and then replaced with complete media (with 10% FBS) and cultured for an additional 40-44 hrs. Data are presented as means±SE.
(§2) Molecular and cellular characterization of a functional GRIN2B SNP: Luciferase vector construction. […]
(§3) Cell Culture, Transfection, and Luciferase assay. […] The luciferase activities were then measured in Synergy 4 plate reader (Biotek, US).
(§4) Murine Neuro-2a neuroblastoma cells were maintained in RPMI medium 1640 with 10% Fetal Bovine Serum (complete medium) at 37° C. in 5% CO2. […] The luciferase activities were then measured in Synergy 4 plate reader (Biotek US).

[2] = system: human GRIN2B promoter (A allele of SNP rs3764030) in N2a cells; assay: dual-luciferase reporter gene assay, GRIN2B promoter A allele plasmid; type: cell-based, murine
Experimental: as §1, §2, §3, §4

[3] = molecular target: T1, recombinant human Elk-1 protein (Homo sapiens, UniProt P19419); assay: Electrophoretic Mobility Shift Assay (EMSA); type: binding; conditions: 1 μg recombinant human Elk-1; gel stained for DNA (SYBR Green) and protein (SYPRO Ruby)
T1 construct: purchased Sigma Aldrich
T1 sequence (P19419 1-428): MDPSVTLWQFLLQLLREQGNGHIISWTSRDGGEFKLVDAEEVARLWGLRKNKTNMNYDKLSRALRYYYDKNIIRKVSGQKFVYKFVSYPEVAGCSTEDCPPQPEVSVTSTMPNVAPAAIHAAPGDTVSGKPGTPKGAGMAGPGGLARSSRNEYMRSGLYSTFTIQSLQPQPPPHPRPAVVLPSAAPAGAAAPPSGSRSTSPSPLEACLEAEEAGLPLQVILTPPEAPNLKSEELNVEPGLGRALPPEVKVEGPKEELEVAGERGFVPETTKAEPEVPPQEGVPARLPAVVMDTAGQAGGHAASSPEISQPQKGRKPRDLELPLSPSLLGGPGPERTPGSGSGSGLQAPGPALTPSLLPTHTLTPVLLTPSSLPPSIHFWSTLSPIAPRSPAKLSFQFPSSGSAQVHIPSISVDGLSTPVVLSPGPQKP
Experimental: FIG. 2 depicts binding of recombinant Elk-1 protein (an ETS transcription factor) to double stranded DNAs containing the single nucleotide polymorphism (SNP) rs3764030 variant A allele from the human GRIN2B gene promoter. Double-stranded DNA targets (Methods) were sequentially incubated with 1 μg recombinant human Elk-1 protein in EMSA buffer, then incubated with the Elk-1 antibody 20 minutes. […] Samples were electrophoresed through 6% polyacrylamide gels in HEPES buffer pH 6.3, without polydldC. The gel was then stained with the SYBR Green to visualize DNA and SYPRO Ruby for protein bound to DNA. The stained gel was scanned using G:BOX (Syngene, US) for imaging. Elk-1 bound to DNA is indicated by the arrow.
Electrophoretic Mobility Shift Assay (EMSA). To monitor the interaction between the ETS domain transcription factor, Elk-1, and its DNA recognition sequence in vitro, we used EMSA. The DNA sequences for positive control containing a GGAT consensus core binding sequence were: Forward: 5′ […] 3′ (SEQ ID NO:2) and Reverse: 5′ […] 3′ (SEQ ID NO:3). The negative control region was: Forward: 5′ […] 3′ (SEQ ID NO:4) and Reverse: 5′ […] 3′ (SEQ ID NO:5), as described in Wei et al (2010). The forward and reverse sequence for GRIN2B A allele which created the ETS binding site were: 5′ […] 3′ (SEQ ID NO:6)and 5′ […] 3′ (SEQ ID NO:7), repectively. […]

| Molecule | luciferase reporter response to NMDA treatment [1] | dose-dependent increase in luciferase activity ([2]; N2A cells transfected with A allele reporter, increasing concentrations of NMDA (0, 30, 50, 70, 90 μM)) | reporter gene activity of A allele relative to cells carrying the G allele reporter ([2]; NMDA receptor activation, dose-dependent, A allele vs G allele) | binding of recombinant Elk-1 to DNA probe [3] |
| --- | --- | --- | --- | --- |
| CN[C@H](CC(=O)O)C(=O)O [NMDA, N-methyl-D-aspartate] | did not respond | 2.4-11.5 fold | 2 fold | – |
| A allele DNA probe: annealed dsDNA of GRIN2B A allele, 5′ CATCTCCGGGGAACACGCGAA 3′ (SEQ ID NO:6) and SEQ ID NO:7, creating ETS binding site (chain 2 TTCGCGTGTTCCCCGGAGATG; listed as DNA, chemistry not given here) | – | – | – | bound recombinant Elk-1 to a greater extent than the G allele DNA probe |
